In patent US20120171213A1, “METHOD OF TREATING TUMORS” (Yissum Research Development Company of the Hebrew …, priority 2009, published 2012):

Key:
[1] = system: hES-cell teratoma-derived tumor cells (WA09, TE06); assay: Annexin V / PI flow cytometry for apoptosis after Taxol and Purvalanol A treatment in vitro; format: cell-based, human; details: 0.2 µM Taxol 16 hours and/or 10 µM Purvalanol A 16 hours, sequential, versus DMSO, n=5
Description: FACS: Annexin V and PI staining for apoptosis detection was performed using the Annexin V-PE kit (Bender MedSystems) according to the manufacturer's instructions. FACS analysis was performed using FACSCaliber system (Becton Dickinson). Analysis was performed on […] software (Becton Dickinson). Forward and side scatter plots were used to exclude debris from the histogram analysis.
The medium was then replaced with a medium containing […] Purvalanol A (Sigma), and the cells were cultured for an additional 16 hours. Other wells were treated with either Taxol for 16 hours followed by DMSO (the solution vehicle) for 16 hours or DMSO for 16 hours followed by Purvalanol A for 16 hours. Control wells were treated twice with DMSO at the same time points. Mice bearing hES-cell teratomas for 30 d were injected intraperitoneally with 7 mg/kg Taxol and 24 hours later were injected with 60 mg/kg Purvalanol A. Reagents were injected in a solution of DMSO/PEG400 at 1:1 ratio. Control mice received vehicle injections at the same time points. Mice were euthanized 18 hours after the last injection. Fresh frozen […] teratoma sections were subjected to TUNEL using the ApoAlert DNA Fragmentation Assay Kit (Clontech) according to the manufacturer's instructions.

tumor cell = details: both in vitro and in vivo; cited from earlier work

Row | SMILES | fold increase in apoptotic cells (Annexin V positive) [1] | tumor cell death by apoptosis (tumor cell)
1 | CC(C)[C@H](CO)Nc1nc(Nc2cccc(Cl)c2)c2ncn(C(C)C)c2n1 [Purvalanol A] | no significant effect | negligible results
2 | CC(=O)O[C@H]1C(=O)[C@@]2(C)[C@H]([C@H](OC(=O)c3ccccc3)[C@]3(O)C[C@H](OC(=O)[C@H](O)[C@@H](NC(=O)c4ccccc4)c4ccccc4)C(C)=C1C3(C)C)[C@]1(OC(C)=O)CO[C@@H]1C[C@@H]2O [Taxol] |  | negligible results
